Test results taken from ChEMBL document CHEMBL1201862, “PubChem BioAssay data set” (2004).
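Following 48 hours of exposure in 96-well plates, responses at five concentrations were used to interpolate endpoints linearly. The concentration for 50% growth inhibition is given as GI50.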 Activity calls are given as the source filed them. Cut-off read from the data, not from the text of the source: active = GI50 up to about 1.1 µM and inactive = higher.

Key:
Assay in all cases: inhibition of tumour cell growth, NCI panel, 48 h
[1] = system: SF-268
[2] = system: SK-MEL-5
[3] = system: SNB-19
[4] = system: TK-10
[5] = system: UACC-62
[6] = system: DU-145
[7] = system: SK-OV-3
[8] = system: UO-31
[9] = system: K562
[10] = system: NCI/ADR-RES
[11] = system: RXF 393
[12] = system: A549
[13] = system: NCI-H23
[14] = system: OVCAR-5
[15] = system: BT-549
[16] = system: MDA-MB-435
[17] = system: HCC 2998
[18] = system: SF-295
[19] = system: A498
[20] = system: EKVX

Measured: GI50

Cc1ccc(S(=O)(=O)NC(=O)NS(=O)(=O)O)cc1
inactive: [1] > 100 µM | [2] > 100 µM | [3] > 100 µM | [4] > 100 µM | [5] > 100 µM | [6] > 100 µM | [7] > 100 µM | [8] > 100 µM | [9] > 100 µM | [10] > 100 µM | [11] > 100 µM | [12] > 100 µM | [13] > 100 µM | [14] > 100 µM | [15] > 100 µM

O=C(Nc1c(Cl)cc([N+](=O)[O-])cc1Cl)C(=O)C1C(=O)NC(=S)NC1=O
inactive: [16] > 100 µM | [1] > 100 µM | [2] > 100 µM | [3] > 100 µM | [4] > 100 µM | [17] > 100 µM | [5] > 100 µM | [7] > 100 µM | [8] > 100 µM | [9] > 100 µM | [18] > 100 µM | [19] > 100 µM | [10] > 100 µM | [11] > 100 µM | [12] > 100 µM | [20] > 100 µM | [13] > 100 µM | [14] > 100 µM | [15] > 100 µM

CC(NC(=O)C(C)C(=O)NCc1ccc(C(F)(F)F)cc1)C(N)=O (stereo not given)
inactive: [16] > 100 µM | [1] > 100 µM | [2] > 100 µM | [3] 63.8 µM | [5] > 100 µM | [6] > 100 µM | [7] > 100 µM | [8] > 100 µM | [9] > 100 µM | [18] > 100 µM | [10] > 100 µM | [11] > 100 µM | [12] > 100 µM | [20] > 100 µM | [13] > 100 µM | [14] > 100 µM | [15] 84.7 µM

O=C(O)CCCc1ccc2c(c1)C(C(=O)O)CC2 (stereo not given)
inactive: [1] > 100 µM | [2] > 100 µM | [3] > 100 µM | [4] > 100 µM | [17] > 100 µM | [5] > 100 µM | [6] > 100 µM | [7] > 100 µM | [8] > 100 µM | [9] > 100 µM | [18] > 100 µM | [10] > 100 µM | [11] > 100 µM | [12] > 100 µM | [20] > 100 µM | [13] > 100 µM | [14] > 100 µM | [15] 76 µM

COC(=O)/C=C(\C(=O)OC)C1C(=O)Oc2c(C)c(=O)c3ccccc3n21 (stereo not given)
inactive: [16] > 100 µM | [1] > 100 µM | [2] > 100 µM | [3] > 100 µM | [4] > 100 µM | [5] > 100 µM | [6] > 100 µM | [7] > 100 µM | [9] > 100 µM | [18] > 100 µM | [10] > 100 µM | [11] > 100 µM | [12] > 100 µM | [20] > 100 µM | [13] > 100 µM | [15] > 100 µM

O=C(O)c1ccccc1/C=C1/Nc2ccccc2C1=O
inactive: [16] > 100 µM | [1] 93.1 µM | [3] > 100 µM | [4] > 100 µM | [17] > 100 µM | [5] > 100 µM | [6] > 100 µM | [7] > 100 µM | [8] 50 µM | [9] > 100 µM | [18] > 100 µM | [19] > 100 µM | [10] > 100 µM | [11] > 100 µM | [12] > 100 µM | [20] 60 µM | [13] > 100 µM | [14] > 100 µM

CC(=O)OCC1OC(n2c(C)c(C)c(C)c(C#N)c2=S)C(OC(C)=O)C(OC(C)=O)C1OC(C)=O (stereo not given)
inactive: [16] > 100 µM | [1] 95.5 µM | [2] > 100 µM | [3] 33.7 µM | [4] 46.6 µM | [17] > 100 µM | [5] > 100 µM | [6] > 100 µM | [7] 24.8 µM | [8] 14.7 µM | [9] > 100 µM | [18] 14.8 µM | [19] > 100 µM | [10] > 100 µM | [11] 18.6 µM | [12] > 100 µM | [20] 26.2 µM | [13] > 100 µM | [14] > 100 µM

O=C(Cc1ccccc1)Nn1c(-c2ccccc2)nc2ccccc2c1=O
inactive: [16] > 100 µM | [1] > 100 µM | [2] 2.38 µM | [3] > 100 µM | [4] > 100 µM | [17] > 100 µM | [5] > 100 µM | [6] > 100 µM | [7] > 100 µM | [8] > 100 µM | [9] > 100 µM | [18] > 100 µM | [19] 62.7 µM | [11] > 100 µM | [12] > 100 µM | [20] > 100 µM | [13] > 100 µM | [14] > 100 µM | [15] > 100 µM

O=C1CCC2(CC1CC(Sc1ccccc1)Sc1ccccc1)OCCO2 (stereo not given)
inactive: [16] 36.7 µM | [1] 31.2 µM | [2] 17.5 µM | [3] 74.1 µM | [4] 62.7 µM | [17] 44.1 µM | [5] 31.2 µM | [6] 88.5 µM | [7] > 100 µM | [8] 36.1 µM | [9] 31.9 µM | [18] 52.6 µM | [19] 74.3 µM | [10] 33.4 µM | [11] 36.1 µM | [12] 38.2 µM | [20] 61.8 µM | [13] 42.7 µM | [14] 72.4 µM

O=[N+]([O-])c1ncc(N(CCO)CCO)s1
inactive: [16] 34.8 µM | [1] 40.3 µM | [3] > 100 µM | [4] 34.9 µM | [17] 47 µM | [5] 19.8 µM | [6] 65.9 µM | [7] > 100 µM | [8] 43.1 µM | [9] 20.8 µM | [18] > 100 µM | [19] 65.5 µM | [11] 16.7 µM | [20] > 100 µM | [13] 41 µM | [14] 78.5 µM | [15] 26.5 µM

Cc1cccc2c1Oc1cc(Cl)ccc1C2NC(=O)CCN1CCOCC1 (stereo not given)
inactive: [16] > 100 µM | [1] > 100 µM | [2] > 100 µM | [3] > 100 µM | [4] > 100 µM | [17] > 100 µM | [5] 50.1 µM | [6] > 100 µM | [7] > 100 µM | [8] 49.8 µM | [9] > 100 µM | [18] > 100 µM | [10] > 100 µM | [12] > 100 µM | [20] > 100 µM | [13] > 100 µM | [14] > 100 µM | [15] > 100 µM
